Values after ≈ are worked out from the molar mass of the structure shown. Where two headings read alike, the source gives them in different places.
Columns and labels:
MDR1 (P-glycoprotein) = assay: MDCK-MDR1 permeability A→B; assay type: in vitro ADME, Canine; details: dog; MDCK cells expressing human MDR1, A→B; read-out: MDCK-MDR Permeability A→B
In short: (§1)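 Permeability measured apical-to-basolateral in MDCK cells expressing human MDR1, reported as binned ranges in cm/s×10^−6. Metabolic stability determined as half-life in mouse and human hepatocytes, reported as binned ranges in minutes.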

[1] = Kinetic aqueous solubility (KSOL) in PBS, pH 7.4; assay type: physicochemical; details: aqueous buffer, kinetic from dmso stock
Protocol: (§2) ADME studies: Compound A and the compounds of the disclosure were tested for aqueous solubility (KSOL), metabolic stability (human and mouse […]) and permeability (Caco-2 and/or MDR1-MDCK cells) to provide an initial indication of oral bioavailability.
(§3) The favorable physicochemical properties are reflected in promising results in in vitro ADME tests. […] Metabolic stability, which was routinely measured with mouse and human hepatocytes, is outstanding, with t, greater than 2 hours for all of the compounds of the disclosure in which it has been measured. Cell permeability was measured using MDCK cells expressing human MDR1 (P-glycoprotein) to assess passive permeability as well as active transport out of the cell. […] Numerous compounds in Table 1 meet these permeability criteria, which is consistent with their design for TPSA <140 Å^2 and increased lipophilicity.

[2] = Metabolic stability in human hepatocytes; assay type: in vitro ADME; details: read-out: Human MS Stability t1/2
Protocol: as §2, §3
(§4) The MDCK-MDR1 permeability A ->B is shown in Table 2 below, where A represents 5-10 cm/s×10^−6; B represents 1-5 cm/s×10^−6; and C represents <1 cm/ss×10^−6. The metabolic stability half time, in both mouse and human hepatocytes, is also shown in Table 2 below, where A′ represents 100-200 minutes; B′ represents 200-300 minutes; and C′ represents >300 minutes.

[3] = Metabolic stability in mouse hepatocytes; assay type: in vitro ADME; details: read-out: Mouse MS Stability t1/2
Protocol: as §2, §3, §4

[4] = system: IFNβ production in THP-1 cells; assay: IFNβ ELISA in THP-1 cells; assay type: cell-based, human; details: Homo sapiens; THP-1 cells
In short: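 THP-1 cells stimulated with dsDNA or cGAMP (STING activation bypassing cGAS) in the presence of compound; IFNβ secreted into medium quantified by ELISA. IC50 values reported in potency bins.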

cGAS = cGAS (Homo sapiens, UniProt Q8N884); assay: Transcreener cGAS enzymatic assay (FP); assay type: biochemical
In short: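 Human cGAS (30 nm) inhibition, 60 min reactions, FP read-out, standard conditions 100 μM ATP and GTP plus 62.5 nM bp ISD. Also run at 1 mM ATP and GTP (physiological), with 200 μM MnCl2, and with mouse cGAS under standard conditions; IC50 reported.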

[5] = system: MDCK cells expressing human MDR1 (P-glycoprotein); assay: MDCK-MDR1 permeability A→B; assay type: in vitro ADME, Canine
In short: as §1

[6] = system: IFN-β production in PBMCs; assay: IFNβ ELISA in human primary PBMCs; assay type: cell-based; details: PBMC
Description: Cellular assays: The human monocyte cell line THP-1 and human primary PBMCs were used to evaluate the cellular activity of compounds with good biochemical potency. These cells produce a robust cGAS/STING-dependent type I IFN response when stimulated with dsDNA and other pathogen-associated molecular patterns, which was detected using a standard ELISA for IFNβ (R&D Systems). The TBK1 inhibitor, BX-795, which acts downstream of cGAS/STING, was used as a probe.
The ICso values for IFNB ELISA stimulated with THP-1, PBMC, DNA, and cGAMP were determined for several exemplary compounds of the invention, and are provided in Table 3 where A represents <1 μM; B represents 1-2.5 μM; C represents 2.5-10 μM; D represents 10-20 μM; and E represents >20 μM.
The reporter gene assays were used to assess off-target activity with IRF30Luc (RIG-1) or NFKB (TLR4); CellTiter Glo (ATP levels) and Presto Blue (reducing equivalents) were used to assess cytotoxicity; all assays were performed in dose response mode. […] The inventors recently began using human PBMCs to assess cellular potency in a more physiologically relevant context.

[7] = high ATP and GTP (1 mM) to mimic physiological conditions, read-out: IC50 FP Physiological
[8] = standard conditions: 100 μM ATP and GTP, 62.5 nM bp ISD, 60 minute reactions, read-out: IC50 FP Standard

cGAS, sequence (Q8N884 whole entry): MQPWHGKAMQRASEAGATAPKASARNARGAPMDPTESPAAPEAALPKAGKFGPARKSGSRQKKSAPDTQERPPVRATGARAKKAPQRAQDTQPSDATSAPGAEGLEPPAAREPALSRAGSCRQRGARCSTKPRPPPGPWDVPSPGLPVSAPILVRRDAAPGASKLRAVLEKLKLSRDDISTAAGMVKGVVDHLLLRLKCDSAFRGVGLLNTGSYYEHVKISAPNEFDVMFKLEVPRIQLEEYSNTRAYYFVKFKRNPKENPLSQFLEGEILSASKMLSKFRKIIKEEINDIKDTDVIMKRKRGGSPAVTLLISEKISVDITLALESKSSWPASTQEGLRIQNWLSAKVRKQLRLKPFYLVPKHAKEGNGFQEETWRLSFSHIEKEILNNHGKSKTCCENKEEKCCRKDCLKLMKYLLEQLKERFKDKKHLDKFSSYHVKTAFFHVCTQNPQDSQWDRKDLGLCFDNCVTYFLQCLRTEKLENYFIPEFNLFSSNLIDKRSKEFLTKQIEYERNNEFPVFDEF

Compound | Papp A→B (MDR1 (P-glycoprotein)) [×10⁻⁶ cm/s] | solubility kinetic [1] [µM] | half-life [2] [h] | half-life [3] [h] | IC50 [4] [nM] | IC50 (cGAS; [7]) [nM] | IC50 (cGAS; [8]) [nM] | MDCK-MDR Permeability A→B [5] | IC50 [6] [nM]
Cc1nc(N2C[C@@H](CC(=O)N(C)C3CCCC3)C[C@H]2C(=O)O)c2oc3ccccc3c2n1 [Compound 2, (2S,4R)-4-(2-(cyclopentyl(methyl)amino)-2-oxoethyl)-1-(2-methylbenzofuro[3,2-d]pyrimidin-4-yl)pyrrolidine-2-carboxylic acid] |  | 506 (≈ 221 µg/mL) | > 5 | > 5 | > 20000 | 500 to 1000 | 50 to 100 | C (C represents <1 cm/ss×10^−6) | 
COc1cc(NC(=O)C[C@H]2C[C@@H](C(=O)O)N(c3nc(C)nc4c3oc3ccccc34)C2)ccn1 [Compound 6, (2S,4R)-4-(2-((2-methoxypyridin-4-yl)amino)-2-oxoethyl)-1-(2-methylbenzofuro[3,2-d]pyrimidin-4-yl)pyrrolidine-2-carboxylic acid] |  | 496 (≈ 229 µg/mL) | > 5 | > 5 | 2500 to 10000 | 1000 to 5000 | 50 to 100 | C (C represents <1 cm/ss×10^−6) | 
C#Cc1ccc(NC(=O)C[C@H]2C[C@@H](C(=O)O)N(c3nc(C)nc4c3oc3ccccc34)C2)cc1 [Compound 27, (2S,4R)-4-(2-((4-ethynylphenyl)amino)-2-oxoethyl)-1-(2-methylbenzofuro[3,2-d]pyrimidin-4-yl)pyrrolidine-2-carboxylic acid] | 1 to 5 | 548 (≈ 249 µg/mL) | 1.67 to 3.33 | > 5 | 2500 to 10000 | 1000 to 5000 | 100 to 200 |  | 2500 to 10000
Cc1nc(N2C[C@@H](CC(=O)Nc3ccc4ccccc4c3)C[C@H]2C(=O)O)c2oc3ccccc3c2n1 [Compound 31, (2S,4R)-1-(2-methylbenzofuro[3,2-d]pyrimidin-4-yl)-4-(2-(naphthalen-2-ylamino)-2-oxoethyl)pyrrolidine-2-carboxylic acid] | 5 to 10 | 313 (≈ 150 µg/mL) | 1.67 to 3.33 | > 5 | 1000 to 2500 | 200 to 500 | 50 to 100 |  | 1000 to 2500
Cc1nc(N2C[C@@H](CC(=O)Nc3cccc(-c4ccccc4)c3)C[C@H]2C(=O)O)c2oc3ccccc3c2n1 [Compound 36, (2S,4R)-4-(2-([1,1′-biphenyl]-3-ylamino)-2-oxoethyl)-1-(2-methylbenzofuro[3,2-d]pyrimidin-4-yl)pyrrolidine-2-carboxylic acid] | 1 to 5 | 155 (≈ 78.5 µg/mL) | > 5 | > 5 | 1000 to 2500 | 200 to 500 | 50 to 100 |  | 1000 to 2500
Cc1nc(N2C[C@@H](CC(=O)Nc3ccc(-c4cccnc4)cc3)C[C@H]2C(=O)O)c2oc3ccccc3c2n1 [Compound 37, (2S,4R)-1-(2-methylbenzofuro[3,2-d]pyrimidin-4-yl)-4-(2-oxo-2-((4-(pyridin-3-yl)phenyl)amino)ethyl)pyrrolidine-2-carboxylic acid] |  | 547 (≈ 278 µg/mL) | > 5 | 3.33 to 5 | 1000 to 2500 | < 200 | < 50 | C (C represents <1 cm/ss×10^−6) | 1000 to 2500
Cc1nc(N2C[C@@H](CC(=O)Nc3ccc(-c4cccc5[nH]ncc45)cc3)C[C@H]2C(=O)O)c2oc3ccccc3c2n1 [Compound 46, (2S,4R)-4-(2-((4-(1H-indazol-4-yl)phenyl)amino)-2-oxoethyl)-1-(2-methylbenzofuro[3,2-d]pyrimidin-4-yl)pyrrolidine-2-carboxylic acid] |  | 42 (≈ 23 µg/mL) | 1.67 to 3.33 | > 5 | < 1000 | < 200 | < 50 | C (C represents <1 cm/ss×10^−6) | 1000 to 2500
Cc1nc(N2C[C@@H](CC(=O)Nc3ccc(Cc4ccccc4)cc3)C[C@H]2C(=O)O)c2oc3ccccc3c2n1 [Compound 54, (28.4R)-4-(2-((4-benzylphenyl)amino)-2-oxoethyl)-1-(2-methylbenzofuro[3,2-d]pyrimidin-4-yl)pyrrolidine-2-carboxylic acid] | 1 to 5 | 285 (≈ 148 µg/mL) | 1.67 to 3.33 | 1.67 to 3.33 | 1000 to 2500 | 500 to 1000 | 50 to 100 |  | 2500 to 10000

The next lines start with results.

Papp A→B (MDR1 (P-glycoprotein)) [×10⁻⁶ cm/s] | solubility kinetic [1] [µM] | half-life [2] [h] | half-life [3] [h] | IC50 [4] [nM] | IC50 (cGAS; [7]) [nM] | IC50 (cGAS; [8]) [nM] | MDCK-MDR Permeability A→B [5] | Compound | IC50 [6] [nM]
1 to 5 | 487 (≈ 229 µg/mL) | > 5 | 1.67 to 3.33 | 2500 to 10000 | 1000 to 5000 | 50 to 100 |  | Cc1nc(N2C[C@@H](CC(=O)Nc3ccc4[nH]ccc4c3)C[C@H]2C(=O)O)c2oc3ccccc3c2n1 [Compound 1, (2S,4R)-4-(2-((1H-indol-5-yl)amino)-2-oxyethyl)-1-(2-methylbenzofuro[3,2-d]pyrimidin-4-yl)pyrrolidine-2-carboxylic acid] | 
 | 496 (≈ 233 µg/mL) |  | > 5 | 10000 to 20000 | > 5000 | 1000 to 10000 | C (C represents <1 cm/ss×10^−6) | Cc1nc(N2C[C@@H](CC(=O)Nc3ccc4[nH]ncc4c3)C[C@H]2C(=O)O)c2oc3ccccc3c2n1 [Compound 3, (2S,4R)-4-(2-((1H-indazol-5-yl)amino)-2-oxyethyl)-1-(2-methylbenzofuro[3,2-d]pyrimidin-4-yl)pyrrolidine-2-carboxylic acid] | 
5 to 10 | 80 (≈ 39.9 µg/mL) | > 5 | > 5 | 2500 to 10000 | 1000 to 5000 | 200 to 1000 |  | Cc1nc(N2C[C@@H](CC(=O)Nc3ccc(Cl)c(Cl)c3)C[C@H]2C(=O)O)c2oc3ccccc3c2n1 [Compound 26, (2S,4R)-4-(2-((3,4-dichlorophenyl)amino)-2-oxoethyl)-1-(2-methylbenzofuro[3,2-d]pyrimidin-4-yl)pyrrolidine-2-carboxylic acid] | 2500 to 10000
 | 527 (≈ 254 µg/mL) | > 5 | 3.33 to 5 | 2500 to 10000 | 1000 to 5000 | 50 to 100 | C (C represents <1 cm/ss×10^−6) | Cc1nc(N2C[C@@H](CC(=O)Nc3ccc4ncccc4c3)C[C@H]2C(=O)O)c2oc3ccccc3c2n1 [Compound 32, (2S,4R)-1-(2-methylbenzofuro[3,2-d]pyrimidin-4-yl)-4-(2-oxo-2-(quinolin-6-ylamino)ethyl)pyrrolidine-2-carboxylic acid] | 10000 to 20000
 | 84 (≈ 45.9 µg/mL) | 1.67 to 3.33 | > 5 | 1000 to 2500 | 200 to 500 | < 50 | C (C represents <1 cm/ss×10^−6) | Cc1nc(N2C[C@@H](CC(=O)Nc3ccc(-c4ccc5[nH]ncc5c4)cc3)C[C@H]2C(=O)O)c2oc3ccccc3c2n1 [Compound 38, (2S,4R)-4-(2-((4-(1H-indazol-5-yl)phenyl)amino)-2-oxoethyl)-1-(2-methylbenzofuro[3,2-d]pyrimidin-4-yl)pyrrolidine-2-carboxylic acid] | 2500 to 10000
